Measured values: US12383526B2, “Optimized sigma-1 agonist method of responder selection and treatment” (ANAVEX LIFE SCIENCES CORP., priority 2018, dated 2025)
Marks after values point to notes of the source that are not given here.

Test system: subjects with mild-to-moderate AD
Test: ADCS-ADL (Activities of Daily Living) change from baseline, 57-week Phase 2a study and 208-week extension study
Format: in vivo, human
Design: key to unadjusted change in ADCS-ADL score, Mean ± Std. Dev: change from baseline on ADCS-ADL scale 0–78, higher = greater function
Conditions: for ADCS-ADL Cohen's d: week 57, compared to standard of care
Text: The present study integrates and analyzes data and samples from two consecutive clinical trials: 57-week study and 208-week study. 57-week study was a multicenter Phase 2a clinical trial of the drug ANAVEX2-73 that recruited a sample of 32 subjects with mild-to-moderate AD. It consisted of two parts: Part A was a simple randomized, open-label, two-period, cross-over, adaptive trial lasting up to 5 weeks. Each period involved one specific administration route and two possible dose levels: in one period the oral dose (30 mg or 50 mg) was administrated and in the other period an intravenous (IV) form (3 mg or 5 mg) was administered, making a total of 8 possible dose administration schemes in Part A (details available in FIG. 2A). The two periods were separated by a wash-out period of 12 days where no dose was given.
Part B, following immediately after Part A, was an open-label extension of the oral daily dose for an additional 52 weeks. The primary endpoint of 57-week study was to establish the safety and tolerability of the drug. Secondary endpoints aimed at establishing the relationship between dosing regimen and pharmacodynamics-exploratory efficacy outcomes of cognition and function. Cognition was assessed by the Mini Mental State Examination (MMSE), while functional abilities by the Alzheimer's Disease Co-operative Study—Activities of Daily Living Inventory (ADCS-ADL). Additional cognitive measures included the Cogstate Brief Battery (CBB), and functional measures of Electroencephalography and Event-Related Potential (EEG and ERP). Part B continued an adaptive oral administration scheme. Table 12 summarizes mean oral dose administration during the 57-week study study.
Due to favorable safety and tolerability profile of the 57-week study (Table 2), and in response to requests from patients and caregivers, a 208-week open-label extension study (208-week study) was carried out immediately after completion of 57-week study Part B. 208-week study enrolled the 24 subjects who completed Part B and applied similarly an adaptive daily oral administration scheme. ANAVEX2-73-003 involves continuous evaluation of safety and efficacy as measured by the MMSE and ADCS-ADL. At week 148 (interim time point for analyses), data on the subjects remaining in the study (n=21) was analyzed for efficacy outcomes. This report was drafted using data available at week 148, while ANAVEX2-73-003 is still ongoing.
Exploratory clinical efficacy in this study was defined as change from baseline of each patient's cognitive (MMSE) and functional ability (ADCS-ADL) scores. The MMSE57 is a widely used, validated instrument in clinical AD research, including as a cognitive outcome measure in drug trials. The range of the scale is from 0 to 30, with a higher score indicating higher cognitive function. The ADCS-ADL58 is undertaken in a structured caregiver interview format and assesses performance in activities of daily living of patients with AD. The scale is from 0 to 78, with a higher score indicating greater function. The ADCS-ADL has shown to have good test-retest reliability 59. The MMSE and the ADCS-ADL were assessed during pre-specified clinical site visits across 14 different time points during the 57-week study (Weeks 0 and 5 in Part A; Weeks 17, 31, 41, 53, and 57 in Part B), and 208-week study (Weeks 70, 83, 96, 109, 122, 135, and 148) studies.
Corresponding Delta scores were calculated using the difference between values at each visit and at baseline for each individual patient, with a focus on Week 57. In addition, to lower the impact of noise in MMSE and ADCS-ADL scores, a Slope was estimated using a linear regression across all available time points for each individual patient. The derived scores describe the progression of exploratory efficacy data from baseline at several specific time points (Deltas) and over a set period of time (Slope). […]

With `CN(C)CC1CCOC1(c1ccccc1)c1ccccc1.Cl` (centres unmarked) [ANAVEX2-73, tetrahydro-N,N-dimethyl-2,2-diphenyl-3-furanmethanamine hydrochloride] the “unadjusted change in ADCS-ADL score, Mean ± Std. Dev” value (“unadjusted change in ADCS-ADL score” below) (Group 3 (n 11), Week 70) was −5.09 ± 10.70, the “unadjusted change in ADCS-ADL score” value (Group 3 (n 11), Week 83) was −5.55 ± 12.65 and the “unadjusted change in ADCS-ADL score” value (Group 3 (n 11), Week 96) was −8.64 ± 16.10. The “unadjusted change in ADCS-ADL score” value (Group 3 (n 11), Week 109) was −9.45 ± 15.13, the “unadjusted change in ADCS-ADL score” value (Group 3 (n 11), Week 122) was −9.27 ± 12.17 and the “unadjusted change in ADCS-ADL score” value (Group 3 (n 11), Week 135) was 11.09 ± 16.16. The “unadjusted change in ADCS-ADL score” value (Group 3 (n 11), Week 148) was −14.73 ± 17.70, the “unadjusted change in ADCS-ADL score” value (Group 4 (n 14), Week 148) was −19.43 ± 18.50 and the “unadjusted change in ADCS-ADL score” value (Group 4 (n 15), Week 109) was −12.60 ± 15.00. For the same molecule, the “unadjusted change in ADCS-ADL score” value (Group 4 (n 15), Week 122) was −15.20 ± 17.30, the “unadjusted change in ADCS-ADL score” value (Group 4 (n 16), Week 0) was 0.00 ± 0.00 and the “unadjusted change in ADCS-ADL score” value (Group 4 (n 16), Week 5) was −1.25 ± 5.54. For the same molecule, the “unadjusted change in ADCS-ADL score” value (Group 4 (n 16), Week 17) was −0.44 ± 3.42, the “unadjusted change in ADCS-ADL score” value (Group 4 (n 16), Week 31) was −2.31 ± 6.00 and the “unadjusted change in ADCS-ADL score” value (Group 4 (n 16), Week 41) was −3.31 ± 7.03. For the same molecule, the “unadjusted change in ADCS-ADL score” value (Group 4 (n 16), Week 53) was 3.81 ± 7.24, the “unadjusted change in ADCS-ADL score” value (Group 4 (n 16), Week 57) was −3.38 ± 7.60 and the “unadjusted change in ADCS-ADL score” value (Group 4 (n 16), Week 70) was −6.94 ± 10.87. For the same molecule, the “unadjusted change in ADCS-ADL score” value (Group 4 (n 16), Week 96) was −13.25 ± 16.77, the “unadjusted change in ADCS-ADL score” value (Group 4 (n 16), Week 135) was −19.12 ± 19.67 and the “unadjusted change in ADCS-ADL score” value (Group 5 (n 4), Week 5) was −3.25 ± 11.30. For the same molecule, the “unadjusted change in ADCS-ADL score” value (Group 5 (n 4), Week 31) was −8.75 ± 3.30, the “unadjusted change in ADCS-ADL score” value (Group 5 (n 4), Week 122) was −27.75 ± 12.26 and the “unadjusted change in ADCS-ADL score” value (Group 5 (n 5), Week 0) was 0.00 ± 0.00. For the same molecule, the “unadjusted change in ADCS-ADL score” value (Group 5 (n 5), Week 17) was −4.20 ± 4.09, the “unadjusted change in ADCS-ADL score” value (Group 5 (n 5), Week 41) was 6.00 ± 3.00 and the “unadjusted change in ADCS-ADL score” value (Group 5 (n 5), Week 53) was −10.00 ± 6.78. The “unadjusted change in ADCS-ADL score” value (Group 5 (n 5), Week 57) was −11.20 ± 8.93, the “unadjusted change in ADCS-ADL score” value (Group 5 (n 5), Week 70) was −14.80 ± 9.63 and the “unadjusted change in ADCS-ADL score” value (Group 5 (n 5), Week 83) was −13.20 ± 11.52. The “unadjusted change in ADCS-ADL score” value (Group 5 (n 5), Week 96) was −18.60 ± 11.67, the “unadjusted change in ADCS-ADL score” value (Group 5 (n 5), Week 109) was −19.20 ± 13.31 and the “unadjusted change in ADCS-ADL score” value (Group 5 (n 5), Week 135) was −24.00 ± 14.65. For the same molecule, the “unadjusted change in ADCS-ADL score” value (Group 5 (n 5), Week 148) was −26.00 ± 16.17, the “unadjusted change in ADCS-ADL score” value (Group 6 (n 2), Week 5) was 0.50 ± 9.19 and the “unadjusted change in ADCS-ADL score” value (Group 6 (n 2), Week 31) was −10.50 ± 3.54. The “unadjusted change in ADCS-ADL score” value (Group 6 (n 3), Week 0) was 0.00 ± 0.00, the “unadjusted change in ADCS-ADL score” value (Group 6 (n 3), Week 17) was −5.00 ± 5.20 and the “unadjusted change in ADCS-ADL score” value (Group 6 (n 3), Week 41) was −6.67 ± 4.04. The “unadjusted change in ADCS-ADL score” value (Group 6 (n 3), Week 53) was −12.67 ± 8.02, the “unadjusted change in ADCS-ADL score” value (Group 6 (n 3), Week 57) was −14.67 ± 10.50 and the “unadjusted change in ADCS-ADL score” value (Group 6 (n 3), Week 70) was −18.00 ± 12.12. For the same molecule, the “unadjusted change in ADCS-ADL score” value (Group 6 (n 3), Week 83) was −17.00 ± 14.11, the “unadjusted change in ADCS-ADL score” value (Group 6 (n 3), Week 96) was −26.00 ± 8.19 and the “unadjusted change in ADCS-ADL score” value (Group 6 (n 3), Week 109) was 25.33 ± 14.47. For the same molecule, the “unadjusted change in ADCS-ADL score” value (Group 6 (n 3), Week 122) was −32.67 ± 8.96, the “unadjusted change in ADCS-ADL score” value (Group 6 (n 3), Week 135) was −32.00 ± 13.75 and the “unadjusted change in ADCS-ADL score” value (Group 6 (n 3), Week 148) was −34.33 ± 15.82. For the same molecule, the “favorable difference in adjusted ADCS-ADL, higher concentration arm compared with low/medium arm” value (MMRM-LME, over 148 weeks) was 88%, the “effect of higher concentrations on Delta ADCS-ADL scores” value (plasma concentration groups, week 57, p=0.03) was “improved” and the “ADCS-ADL Cohen's d” value (Absence of COMT_L146fs variant & Baseline MMSE ≥20, N 11) was 0.89**. For the same molecule, the “ADCS-ADL Cohen's d” value (Absence of COMT_L146fs variant, N 16) was 0.57*, the “ADCS-ADL Cohen's d” value (Absence of SIGMAR1_Q2P variant, N 16) was 0.43 and the “ADCS-ADL Cohen's d” value (Absence of SIGNAR1_Q2P variant & Baseline MMSE ≥20, N 11) was 0.76*. For the same molecule, the “ADCS-ADL Cohen's d” value (All, N 21) was 0.18 and the “ADCS-ADL Cohen's d” value (Baseline MMSE ≥20, N 13) was 0.66*.
